From PMC11377542, “An artificial intelligence accelerated virtual screening platform for drug discovery” (Nature Communications, 2024)
No end group written: not given here. *: point of attachment. Biotin = O=C1N[C@H]2[C@H](CS[C@H]2CCCCC(=O)*)N1

T1: KLHDC2 (Homo sapiens, UniProt Q9Y2U9)
T1 construct: human KLHDC2 (UniProt: Q9Y2U9, amino acid 1–362); made in house; host or cells: HighFive insect cells (baculovirus, pFastBac)
T1 sequence (Q9Y2U9 1-362): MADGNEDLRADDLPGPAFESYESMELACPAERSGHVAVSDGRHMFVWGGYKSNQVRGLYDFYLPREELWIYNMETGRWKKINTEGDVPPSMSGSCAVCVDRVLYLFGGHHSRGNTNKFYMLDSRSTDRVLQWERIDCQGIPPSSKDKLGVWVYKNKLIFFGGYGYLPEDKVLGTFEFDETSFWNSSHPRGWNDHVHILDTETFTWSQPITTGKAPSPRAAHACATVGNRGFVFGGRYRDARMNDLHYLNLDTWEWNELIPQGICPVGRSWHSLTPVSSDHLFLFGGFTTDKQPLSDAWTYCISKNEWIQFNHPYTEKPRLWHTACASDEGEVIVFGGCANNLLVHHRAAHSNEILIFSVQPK

T2: GST-tagged kelch repeat domain of human KLHDC2 (amino acid 1-362) (human, UniProt Q9Y2U9 1-362)
T2 construct: kelch repeat domain of human KLHDC2, UniProt Q9Y2U9, amino acids 1-362; A TEV cleavage site lies between GST and KLHDC2; GST was not cleaved for the AlphaLISA and BLI assays; The crystallised construct (22-362, His-TSF cleaved, from E. coli) was used only with the small molecule C29; also called GST-KLHDC2; GST-tagged KLHDC2; source: HighFive insect cells (baculovirus), purified (glutathione …)
T2 sequence (looked up): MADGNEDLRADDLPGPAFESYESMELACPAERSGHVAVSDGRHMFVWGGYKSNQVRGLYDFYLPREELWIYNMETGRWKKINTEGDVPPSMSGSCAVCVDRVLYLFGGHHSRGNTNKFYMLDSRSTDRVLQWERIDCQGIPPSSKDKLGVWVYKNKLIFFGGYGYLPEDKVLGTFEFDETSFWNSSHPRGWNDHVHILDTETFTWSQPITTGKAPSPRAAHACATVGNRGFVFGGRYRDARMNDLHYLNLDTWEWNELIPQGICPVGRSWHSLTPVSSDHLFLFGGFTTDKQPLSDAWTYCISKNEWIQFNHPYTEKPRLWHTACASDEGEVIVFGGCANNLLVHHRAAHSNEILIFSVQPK


How the values were obtained:
[1] = molecular target: T1, KLHDC2; test: AlphaLISA competition assay (displacement of SelK C-end degron peptide from GST-KLHDC2); format: binding; settings: IC50, competition with biotinylated 12 aa SelK degron peptide; 12-point titration, n = 3 technical replicates
Source text: We took the top-ranked 1000 compounds and filtered out compounds with low predicted solubility, unsatisfied hydrogen bonds in the bound conformation, and followed by similarity clustering to reduce the redundancy in ligand structures. A total of 54 molecules that passed the filtering and clustering were manually examined for favorable interactions and geometries in PyMol[34]. Finally, 37 compounds were chosen for chemical synthesis. Out of these, 29 compounds were successfully synthesized (Supplementary Fig. 13) and characterized in an AlphaLISA competition assay, in which each compound was tested for its ability to compete with a diglycine-containing SelK C-end degron peptide for binding KLHDC2. […] This single digit μM IC50 was further confirmed in a competition assay using BioLayer Interferometry (Supplementary Fig. 14).
The kelch repeat domain of human KLHDC2 (UniProt: Q9Y2U9, amino acid 1–362) was subcloned into the pFastBac vector with an N-terminally fused glutathione-S-transferase (GST), and a TEV-cleavage site. A recombinant baculovirus was produced and amplified three times in Sf9 monolayer cells to produce P4. The P4 virus was used to infect HighFive suspension insect cell cultures to produce the recombinant GST-KLHDC2 protein. The cells were harvested 2–3 days post-infection, re-suspended, and lysed in lysis buffer (20 mM Tris, pH 8.0, 200 mM NaCl, 5 mM DTT) in the presence of protease inhibitors (1 μg/ml Leupeptin, 1 μg/ml Pepstatin and 100 μM PMSF) using a microfluidizer. The GST-KLHDC2 protein was isolated from the soluble cell lysate by PierceTM Glutathione Agarose (Thermo Scientific). For AlphaLISA competition assays, the GST-tagged KLHDC2 was further purified by Q Sepharose High-Performance resin (GE Healthcare). The NaCl eluates were subjected to a Superdex-200 size exclusion chromatography column (GE Healthcare). All samples were flash-frozen in liquid nitrogen for storage prior to use. For protein crystallization, the kelch repeat domain of human KLHDC2 (amino acids 22–362) was subcloned into the pET vector with an N-terminally fused His-elongation factor Ts (TSF) and a TEV-cleavage site. The His-TSF-KLHDC2 protein was overexpressed and purified from BL21 (DE3) E. coli cells. Bacterial cells transformed with the pET-based expression plasmid were grown in LB broth to an OD600 of 0.8–1 and induced with 0.5 mM IPTG. Cells were harvested, re-suspended, and lysed in lysis buffer (20 mM Tris, pH 8.0, 200 mM NaCl, 20 mM imidazole) in the presence of protease inhibitors (1 μg mL–1 leupeptin, 1 μg mL–1 pepstatin and 100 μM phenylmethylsulfonyl fluoride) using a microfluidizer. The His-TSF-KLHDC2 protein was isolated from the soluble cell lysate by HisPurTM Ni-NTA Superflow Agarose (Thermo Fisher Scientific, Waltham, Massachusetts). After TEV cleavage of the His-TSF, KLHDC2 was further purified by Mono Q™ 5/50 GL (GE Healthcare, Chicago, Illinois). The NaCl eluates were subjected to Superdex-200 size-exclusion chromatography (GE Healthcare). Native mass spectrometry was used to confirm KLHDC2 in its apo form. The samples were concentrated by ultrafiltration to 10–22 mg mL−1. All samples were flash-frozen in liquid nitrogen for storage prior to use.
AlphaLISA assays for determining and measuring protein-protein interactions were performed using an EnSpire reader (PerkinElmer). GST-tagged KLHDC2 was attached to anti-GST AlphaLISA acceptor beads. Synthetic N-terminal biotinylated 12 aa SelK degron peptide ([Biotin]HLRGSPPPMAGG[C) (Bio-Synthesis, Inc.) was immobilized to streptavidin-coated AlphaLISA donor beads. The donor and acceptor beads were brought into proximity by the interactions between the SelK peptide and KLHDC2. Excitation of the donor beads by a laser beam of 680 nm promotes the formation of singlet oxygen. When an acceptor bead is in close proximity, the singlet oxygen reacts with thioxene derivatives in the acceptor beads and causes the emission of 615 nm photons, which are detected as the binding signal. […]

[2] = molecular target: T3, hNaV1.7 channel (Homo sapiens, UniProt Q15858); test: Whole-cell patch-clamp electrophysiology on hNaV1.7 stably expressed in HEK-293 cells; format: cell-based; settings: NaV1.7 inactivated state, -70 mV holding potential; mean; read-out: inactivated-state IC50
T3 construct: expressed in transfected cells
Source text: We first clustered the top 100,000 ranked small molecules, then applied filters on the top 1000 cluster representative molecules. A total of 160 molecules that passed the clustering and filtering were examined manually. To ensure the chemical novelty of our selection, we specifically excluded molecules that contain the known arylsulfonamide warhead or structurally resemble antihistamines or beta-receptor blockers. Finally, ten molecules with Tanimoto similarities of less than 0.33 to the known inhibitors of NaV1.7 from the ChEMBL database[43],[44] were selected for synthesis. Of these, nine were successfully synthesized (Supplementary Fig. 16), and their activities were measured using the whole-cell patch-clamp electrophysiology assay on hNaV1.7 channel stably expressed in HEK-293 cells as described in Methods.
HEK-293 cells stably expressing human NaV1.5 and NaV1.7 were obtained from Dr. Chris Lossin (UC Davis, CA). HEK293 cells stably expressing HERG (hKv11.1) were a gift from Craig January (University of Wisconsin, Madison). Cells were cultured in complete DMEM supplemented with 10% FBS, 1% penicillin/streptomycin, and G418. All manual whole-cell patch-clamp recordings were performed at room temperature (22–24 °C) using an EPC-10 amplifier (HEKA Electronik, Lambrecht/Pfalz, Germany) on cells that were grown to 60–80% confluency, lifted with TrypLE, and plated onto poly-l-lysine–coated coverslips. External bath solution contains (in mM) 160 NaCl, 4.5 KCl, 2 CaCl2, 1 MgCl2, 10 HEPES (pH 7.4 and 305 mOsm) as. Patch pipettes were heat-pulled from soda lime glass (micro-hematocrit tubes, Kimble Chase, Rochester, NY) and had resistances of 2–3 MΩ when filled with an internal solution. Patch recordings of NaV1.5 and NaV1.7 channels were done using a cesium fluoride-based internal solution containing (in mM) 10 NaF, 110 CsF, 20 CsCl, 10 HEPES, 2 EGTA, (pH 7.4, 310 mOsm). Recordings of HERG channels were conducted using a potassium fluoride-based internal solution with added ATP (160 mM KF, 2 mM MgCl2, 10 mM EGTA, 10 mM HEPES, 4 mM NaATP, pH = 7.2 and 300–320 mOsm). Data acquisition and analysis were performed with Pulse-PulseFit (HEKA Electronik GmbH, Germany), IgorPro (WaveMetrics, Portland, OR), and Origin 9.0 software (OriginLab Corporation, Northampton, MA). To investigate specifically the inactivated state block of NaV1.7 and NaV1.5, holding potentials were set at the V1/2 of maximal inactivation (− 70 mV and − 80 mV, respectively) before voltage stepping to − 150 mV for 20 msec, and then 0 mV for 50 msec to elicit inward currents. Inhibition of currents in the resting state was recorded using a holding potential of − 120 mV. Control test currents were monitored for up to 5–10 min to ensure that the amplitude and kinetics of the response were stable. Series resistance was compensated to 80–90% and linear leak currents and capacitance artifacts were corrected using a P/4 subtraction method. The pulse interval was 0.1 Hz. For all experiments, stock solutions of the drugs were prepared fresh from 10 mM stocks in DMSO and test solutions prepared in external bath solutions were applied to individual cells into the recording bath. […] The percent reduction of HERG tail current amplitude by the compounds was determined. The percent of a block of tail current amplitude by the drugs was determined and data are shown as mean +/− SD (n = 3–4 per data point).

[3] = molecular target: T2, GST-tagged kelch repeat domain of human …; test: AlphaScreen or HTRF; AlphaLISA competition assay: GST-KLHDC2 (3.83 nM) on anti-GST acceptor beads, biotinylated SelK peptide (5.55 nM) on streptavidin donor beads; 25 mM HEPES pH 7.5, 100 mM NaCl, 1 mM TCEP, 0.1% Tween-20, 0.05 mg/ml BSA; small-molecule competitors 15 nM to 1.5 mM; settings: both partners purified

T3 sequence (Q15858 whole entry): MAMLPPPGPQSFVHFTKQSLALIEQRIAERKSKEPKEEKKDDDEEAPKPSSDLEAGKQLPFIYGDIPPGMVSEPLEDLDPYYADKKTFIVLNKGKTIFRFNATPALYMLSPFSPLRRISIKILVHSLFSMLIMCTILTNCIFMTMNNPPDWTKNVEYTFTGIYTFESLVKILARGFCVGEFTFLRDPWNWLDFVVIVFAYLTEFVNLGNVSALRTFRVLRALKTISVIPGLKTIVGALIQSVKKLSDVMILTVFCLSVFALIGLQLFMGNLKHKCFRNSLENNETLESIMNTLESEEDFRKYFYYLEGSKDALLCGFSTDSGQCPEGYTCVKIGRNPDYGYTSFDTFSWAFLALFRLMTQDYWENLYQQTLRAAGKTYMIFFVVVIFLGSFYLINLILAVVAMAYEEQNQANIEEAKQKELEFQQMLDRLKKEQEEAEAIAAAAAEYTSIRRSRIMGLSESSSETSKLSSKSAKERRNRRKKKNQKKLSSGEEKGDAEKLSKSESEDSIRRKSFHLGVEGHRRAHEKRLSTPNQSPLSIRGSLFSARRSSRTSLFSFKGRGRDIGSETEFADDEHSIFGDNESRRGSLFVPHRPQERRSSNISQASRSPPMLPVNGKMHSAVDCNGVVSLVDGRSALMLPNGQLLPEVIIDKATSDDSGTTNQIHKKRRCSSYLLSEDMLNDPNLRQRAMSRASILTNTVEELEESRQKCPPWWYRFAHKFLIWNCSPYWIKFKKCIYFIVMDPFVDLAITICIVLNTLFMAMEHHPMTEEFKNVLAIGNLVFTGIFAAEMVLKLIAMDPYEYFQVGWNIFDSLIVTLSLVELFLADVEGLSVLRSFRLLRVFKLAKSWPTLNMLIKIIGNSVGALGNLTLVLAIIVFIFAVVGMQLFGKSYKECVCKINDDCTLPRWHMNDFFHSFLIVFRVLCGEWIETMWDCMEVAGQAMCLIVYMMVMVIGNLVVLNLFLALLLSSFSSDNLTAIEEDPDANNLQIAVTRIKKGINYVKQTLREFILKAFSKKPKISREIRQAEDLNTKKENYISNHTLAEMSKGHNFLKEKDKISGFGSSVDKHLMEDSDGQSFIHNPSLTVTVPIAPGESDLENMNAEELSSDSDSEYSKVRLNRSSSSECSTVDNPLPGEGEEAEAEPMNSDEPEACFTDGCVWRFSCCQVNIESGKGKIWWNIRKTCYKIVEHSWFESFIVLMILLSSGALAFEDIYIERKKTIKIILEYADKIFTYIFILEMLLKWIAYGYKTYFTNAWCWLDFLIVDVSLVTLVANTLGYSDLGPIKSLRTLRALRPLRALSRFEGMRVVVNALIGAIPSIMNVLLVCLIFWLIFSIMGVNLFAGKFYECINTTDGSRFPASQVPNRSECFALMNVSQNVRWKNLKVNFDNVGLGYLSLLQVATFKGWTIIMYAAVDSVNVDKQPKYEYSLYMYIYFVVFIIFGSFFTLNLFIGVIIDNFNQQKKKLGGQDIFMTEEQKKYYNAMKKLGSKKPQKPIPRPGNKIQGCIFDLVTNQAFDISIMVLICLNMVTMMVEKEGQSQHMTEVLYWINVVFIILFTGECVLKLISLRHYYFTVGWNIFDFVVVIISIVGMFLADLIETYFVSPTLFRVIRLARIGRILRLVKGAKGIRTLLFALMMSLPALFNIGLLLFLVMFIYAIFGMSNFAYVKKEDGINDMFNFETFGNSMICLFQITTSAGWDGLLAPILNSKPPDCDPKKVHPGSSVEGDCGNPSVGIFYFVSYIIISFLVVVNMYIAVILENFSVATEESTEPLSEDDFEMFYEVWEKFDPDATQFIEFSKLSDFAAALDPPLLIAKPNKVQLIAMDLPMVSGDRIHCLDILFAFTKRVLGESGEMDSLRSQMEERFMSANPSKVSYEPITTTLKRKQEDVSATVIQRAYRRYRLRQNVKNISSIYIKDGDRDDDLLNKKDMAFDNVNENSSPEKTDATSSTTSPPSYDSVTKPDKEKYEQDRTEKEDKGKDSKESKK

Row | Molecule | IC50 [1] [µM] | further results
1 | CC(=CC(=O)N1CCN(C(=O)Cc2cnc3ncccn23)C2CC21)C(C)C (stereo not shown) [Compound C1] | 488 | –
2 | CN(Cc1cn(CC(=O)O)nn1)C(=O)CCCSc1ccc(Cl)cc1 [Compound C2.4] | 10 | –
3 | C=CCN(Cc1cn(CC(=O)O)nn1)C(=O)CSc1cc(C)ccc1C [Compound C2.6] | 6.2 | –
4 | Cc1cc(C)c(C(=O)NCC(=O)NCc2cn(CC(=O)O)nn2)s1 [Compound C2.8] | 1.1 | –
5 | O=C(O)Cn1cc(CNC(=O)c2ccccc2SCC2CCCO2)nn1 (stereo not shown) [Compound C2.16] | 3.3 | –
6 | C=CCN(Cc1cn(CC(=O)O)nn1)C(=O)CCSCc1ccccc1 [Compound C2.19] | 3.4 | –
7 | CC(NC(=O)CSCc1nc2ccccc2s1)c1cn(CC(=O)O)nn1 (stereo not shown) [Compound C2.20] | 4.1 | –
8 | C[C@H]1CN(C(=O)C(OC(C)(C)C)C(C)(C)C)C[C@H]1NC(=O)CCn1ccnn1 (stereo partly shown) [Compound C4] | 2070 | –
9 | CC1(C)CCCC(CC(=O)NC(C)(C)CNC(=O)c2ccnnc2S)C1 (stereo not shown) [Compound C6] | 124 | –
10 | Cc1cc(C(=O)NCCCn2cnnn2)c(C)n1Cc1ccccc1 [Compound C17] | 121 | –
11 | COc1ccc(CN(C)C(=O)COC(=O)Cn2ccnn2)cc1OC [Compound C18] | 377 | –
12 | CC(C)=CCOc1ccc(CCC(C)NCC(O)CCC2CC2)cc1 (stereo not shown) [Compound Z8739905023, CC(CCC=1C=CC(OCC=C(C)C)=CC1)NCC(O)CCC2CC2] | – | IC50 [2]: 2.3 µM
13 | Biotin-HLRGSPPPMAGG (diglycine-containing C-end degron of SelK (selenoprotein K), 12 aa; the C-terminal mark is cut off in print; also called SelK C-end degron peptide; biotinylated 12 aa SelK peptide; source: synthetic peptide (Bio-Synthesis, Inc.)) [N-terminal biotinylated 12 aa SelK degron peptide] | – | binding result [3]: binds
